Source: the NIST ThermoML archive (doi:10.1021/acs.jced.9b00415)
Numbers after ± are expanded uncertainties.

Assay: xn = mol fraction of the nth substance listed
Conditions: 102 kPa, Liquid; for viscosity: Concentric cylinders viscometry; for mass density: Vibrating tube method

CCCCn1cc[n+](C)c1.CS(=O)(=O)[O-] [1-butyl-3-methylimidazolium methanesulfonate] + CCCCn1cc[n+](C)c1.[Cl-]
Conditions	mass density [kg/m3]	viscosity [mPa·s]
323.15 K, x1 = 0.3	1098.9 ± 2.8	388.2 ± 40
323.15 K, x1 = 0.4	1106.3 ± 2.8	365.5 ± 38
323.15 K, x1 = 0.5	1116.6 ± 2.8	267.1 ± 29
328.15 K, x1 = 0.1	1076.7 ± 3	490.5 ± 52
328.15 K, x1 = 0.2	1086.1 ± 2.9	428.3 ± 46
328.15 K, x1 = 0.3	1096.1 ± 2.9	278.2 ± 30
328.15 K, x1 = 0.4	1103.4 ± 2.8	261.8 ± 27
328.15 K, x1 = 0.5	1113.7 ± 2.8	195.6 ± 20
333.15 K, x1 = 0.1	1074 ± 2.9	346.3 ± 36
333.15 K, x1 = 0.2	1083.4 ± 2.9	304.6 ± 32
333.15 K, x1 = 0.3	1093.3 ± 2.8	204.2 ± 21
333.15 K, x1 = 0.4	1100.6 ± 2.8	192.2 ± 20
333.15 K, x1 = 0.5	1110.9 ± 2.8	146.5 ± 15
333.15 K, x1 = 0.6	1119.1 ± 2.7	128 ± 13
338.15 K, x1 = 0.1	1071.4 ± 2.9	250.7 ± 26
338.15 K, x1 = 0.2	1080.7 ± 2.9	222 ± 23
338.15 K, x1 = 0.3	1090.6 ± 2.8	153.2 ± 16
338.15 K, x1 = 0.4	1097.9 ± 2.8	144.3 ± 15
338.15 K, x1 = 0.5	1108.1 ± 2.8	112.1 ± 12
338.15 K, x1 = 0.6	1116.3 ± 2.7	98.76 ± 10
338.15 K, x1 = 0.7	1124.3 ± 2.7	82.97 ± 8.5
343.15 K, x1 = 0.1	1068.7 ± 2.9	185.6 ± 19
343.15 K, x1 = 0.2	1078 ± 2.9	165.4 ± 17
343.15 K, x1 = 0.3	1087.9 ± 2.8	117.2 ± 12
343.15 K, x1 = 0.4	1095.2 ± 2.8	110.5 ± 11
343.15 K, x1 = 0.5	1105.3 ± 2.8	87.31 ± 8.9
343.15 K, x1 = 0.6	1113.5 ± 2.7	77.62 ± 7.9
343.15 K, x1 = 0.7	1121.5 ± 2.7	65.89 ± 6.7
343.15 K, x1 = 0.8	1129.7 ± 2.6	56.84 ± 5.8
348.15 K, x1 = 0.1	1066.1 ± 2.9	140.3 ± 14
348.15 K, x1 = 0.2	1075.4 ± 2.9	125.8 ± 13
348.15 K, x1 = 0.3	1085.2 ± 2.8	91.36 ± 9.4
348.15 K, x1 = 0.4	1092.5 ± 2.8	86.21 ± 8.8
348.15 K, x1 = 0.5	1102.6 ± 2.8	69.19 ± 7
348.15 K, x1 = 0.6	1110.7 ± 2.7	62.01 ± 6.3
348.15 K, x1 = 0.7	1118.6 ± 2.7	53.15 ± 5.4
348.15 K, x1 = 0.8	1126.8 ± 2.6	46.31 ± 4.7
348.15 K, x1 = 0.9	1134.4 ± 2.6	39.65 ± 4
353.15 K, x1 = 0.1	1063.5 ± 2.9	108.1 ± 11
353.15 K, x1 = 0.2	1072.8 ± 2.9	97.5 ± 10
353.15 K, x1 = 0.3	1082.5 ± 2.8	72.39 ± 7.4
353.15 K, x1 = 0.4	1089.7 ± 2.8	68.4 ± 6.9
353.15 K, x1 = 0.5	1099.8 ± 2.7	55.7 ± 5.7
353.15 K, x1 = 0.6	1107.9 ± 2.7	50.28 ± 5.1
353.15 K, x1 = 0.7	1115.7 ± 2.7	43.48 ± 4.4
353.15 K, x1 = 0.8	1123.9 ± 2.6	38.24 ± 3.9
353.15 K, x1 = 0.9	1131.4 ± 2.6	33.04 ± 3.4
358.15 K, x1 = 0.1	1060.9 ± 2.9	84.67 ± 8.6
358.15 K, x1 = 0.2	1070.1 ± 2.9	76.85 ± 7.8
358.15 K, x1 = 0.3	1079.8 ± 2.8	58.23 ± 5.9
358.15 K, x1 = 0.4	1086.9 ± 2.8	55.11 ± 5.6
358.15 K, x1 = 0.5	1097 ± 2.7	45.47 ± 4.6
358.15 K, x1 = 0.6	1105 ± 2.7	41.33 ± 4.2
358.15 K, x1 = 0.7	1112.8 ± 2.6	36.03 ± 3.6
358.15 K, x1 = 0.8	1120.9 ± 2.6	31.96 ± 3.2
358.15 K, x1 = 0.9	1128.4 ± 2.6	27.85 ± 2.8
363.15 K, x1 = 0.1	1058.2 ± 2.9	67.42 ± 6.8
363.15 K, x1 = 0.2	1067.3 ± 2.8	61.54 ± 6.3
363.15 K, x1 = 0.3	1077 ± 2.8	47.51 ± 4.8
363.15 K, x1 = 0.4	1084.1 ± 2.7	45.04 ± 4.6
363.15 K, x1 = 0.5	1094.1 ± 2.7	37.62 ± 3.8
363.15 K, x1 = 0.6	1102.1 ± 2.7	34.41 ± 3.5
363.15 K, x1 = 0.7	1109.9 ± 2.6	30.22 ± 3.1
363.15 K, x1 = 0.8	1117.9 ± 2.6	27.02 ± 2.7
363.15 K, x1 = 0.9	1125.3 ± 2.6	23.72 ± 2.4
